23 molecules from EP4817687A2, “NUCLEOTIDE AND NUCLEOSIDE THERAPEUTIC COMPOSITIONS AND USES RELATED THERETO” (Emory University, priority 2013, dated 2015) can be followed below.

One data set concerns the target HCV NS5B polymerase (Hepatitis C virus genotype 1b, UniProt Q9WMX2). Kind of data set: HCV NS5B pol assay (NS5B RNA-dependent RNA polymerase reaction, filter binding). In kind it is biochemical. Particulars: 1 h; for IC25: read-out: HCV NS5B pol assay (^32P-GTP) IC25; for IC95: read-out: HCV NS5B pol assay (^32P-GTP) IC95.
Data set [1] in a line: Cytotoxicity panel (CC50), Huh-7. In kind it is cell-based, human. Particulars: human, huh-7 cells.
The nature of data set [2]: Cytotoxicity panel (CC50), HepG2. It counts as cell-based. Particulars: human, hepg2 cells.
The nature of data set [3]: Cytotoxicity panel (CC50), BxPC3. In kind it is cell-based. Particulars: human, bxpc3 cells.
A short description of data set [4]: Cytotoxicity panel (CC50), CEM. In kind it is cell-based. Particulars: human, cem cells.
Data set [5] can be described thus: Cytotoxicity panel (CC50), H9c. It counts as cell-based. Particulars: rat, h9c cells.
The nature of data set [6]: Cytotoxicity panel (CC50), A204. It counts as cell-based. Particulars: human, a204 cells.
A short description of data set [7]: Cytotoxicity panel (CC50), IEC-6. In kind it is cell-based. Particulars: rat, iec-6 cells.
The next data set concerns HepG2. The data set can be described thus: Cytotoxicity panel (CC50), HepG2. It counts as cell-based. Particulars: HepG2.
The subject of a further data set is BxPC3. Kind of data set: Cytotoxicity panel (CC50), BxPC3. Particulars: BxPC3. In kind it is cell-based.
For another data set, the system named is H9c. Kind of data set: Cytotoxicity panel (CC50), H9c. Particulars: H9c. It counts as cell-based.
The test system of the next data set is Huh-7. The data set can be described thus: Cytotoxicity panel (CC50), Huh-7. It counts as cell-based, human. Particulars: Huh-7.
A further data set has as its system A204. Kind of data set: Cytotoxicity panel (CC50), A204. It counts as cell-based. Particulars: A204.
Another data set deals with IEC-6. Kind of data set: Cytotoxicity panel (CC50), IEC-6. In kind it is cell-based. Particulars: IEC-6.
Data set [8] relates to 4a (GT1b/4a NS5B chimera). The data set can be described thus: microbe, parasite or virus in culture. Particulars: Hepatitis C virus, read-out: EC50(µM) 4a (GT1b/4a NS5B chimera). In kind it is cell-based, HCV.
For a further data set, the system named is GT1b-NS5B-S96T. The data set can be described thus: microbe, parasite or virus in culture. It counts as cell-based, HCV. Particulars: Hepatitis C virus, read-out: EC50(µM) GT1b-NS5B-S96T.
Data set [9] in a line: Cytotoxicity (CC50) in the GT1b replicon test. Particulars: gt1b replicon cells. It counts as cell-based.
The test system of data set [10] is 2b (GT1b/2b NS5B chimera). Kind of data set: microbe, parasite or virus in culture. It counts as cell-based, HCV. Particulars: Hepatitis C virus, read-out: EC50(µM) 2b (GT1b/2b NS5B chimera).
A further data set deals with GT1b-NS5B-S282T. The data set can be described thus: microbe, parasite or virus in culture. It counts as cell-based, HCV. Particulars: Hepatitis C virus, read-out: EC50(µM) GT1b-NS5B-S282T.
For data set [11], the system named is 3a (GT1b/3a NS5B chimera). Kind of data set: microbe, parasite or virus in culture. It counts as cell-based, HCV. Particulars: Hepatitis C virus, read-out: EC50(µM) 3a (GT1b/3a NS5B chimera).
The test system of another data set is Dengue Type 2. Kind of data set: Anti-Dengue Virus Cytoprotection Assay, Dengue Type 2.
Data set [12] is described as follows: Anti-Dengue assay, toxicity (XTT) in Vero cells. Particulars: monkey. A general note: Formazan colour is commonly taken as a measure of viable cells.

Read-outs that look alike come from different tables or passages of the source.

The IC25 is the point of the concentration-response curve where the effect stands at 25%. For orientation: IC95 means the concentration needed for an effect of 95%. With `C[C@@]1(F)[C@H](O)[C@@H](COP(=O)(O)OP(=O)(O)OP(=O)(O)O)O[C@H]1n1ccc(=O)[nH]c1=O`, on HCV NS5B polymerase, the IC25 was determined as 0.52 µM and the 95% effect concentration (IC95) came out at 9.91 µM.

With `C[C@@]1(O)[C@H](O)[C@@H](COP(=O)(O)OP(=O)(O)OP(=O)(O)O)O[C@H]1n1ccc(=O)[nH]c1=[Se]`, on HCV NS5B polymerase, the IC25 is 6.82 µM and the concentration for an effect of 95% (IC95) is more than 100 µM.

For orientation: CC50 means the concentration at which the toxic effect on the cells reaches its halfway point. The molecule `O=c1[nH]c(=S)ccn1[C@@H]1O[C@H](CO)[C@@H](O)[C@H]1O` registered a CC50 in [1] of 60 µM.

In the case of `C[C@@]1(O)[C@H](O)[C@@H](CO)O[C@H]1n1ccc(=S)[nH]c1=O`, the 50% cytotoxic concentration (CC50) was more than 400 µM in [2], more than 100 µM in [3], more than 100 µM in [1] and more than 400 µM in data set [4].

Turning to `C[C@@]1(F)[C@H](O)[C@@H](CO)O[C@H]1n1ccc(=S)[nH]c1=O`, the CC50 in data set [2], in data set [1] and in data set [4] was more than 400 µM throughout.

In the case of `CC(C)OC(=O)[C@H](C)NP(=O)(OC[C@H]1O[C@@H](n2ccc(=S)[nH]c2=O)[C@](C)(F)[C@@H]1O)Oc1ccccc1` (stereo partly drawn), the half-maximal cytotoxic concentration (CC50) was more than 300 µM in data set [3]; more than 400 µM in data set [5]; more than 300 µM in data set [1]; more than 200 µM in [6]; more than 400 µM in [7].

In data set [7], `CC(C)OC(=O)[C@H](C)NP(=O)(OC[C@H]1O[C@@H](n2ccc(=O)[nH]c2=O)[C@](C)(O)[C@@H]1O)Oc1ccccc1` (stereo partly drawn) came in with a CC50 of 80 µM.

As for `CC(C)OC(=O)[C@H](C)NP(=O)(OC[C@H]1O[C@@H](n2ccc(=O)[nH]c2=[Se])[C@](C)(O)[C@@H]1O)Oc1ccccc1` (stereo partly drawn), the CC50 was more than 400 µM in data set [2], more than 400 µM in data set [3], more than 100 µM in data set [1] and more than 400 µM in data set [6].

For `CC(C)OC(=O)[C@H](C)N[P@@](=O)(OC[C@H]1O[C@@H](n2ccc(=O)[nH]c2=O)[C@](C)(F)[C@@H]1O)Oc1ccccc1`, the CC50 in data set [2], in [1] and in data set [4] was more than 400 µM throughout.

On to `C[C@H](NP(=O)(O)OC[C@H]1O[C@@H](n2ccc(=O)[nH]c2=S)[C@](C)(O)[C@@H]1O)C(=O)O`, for which the half-maximal cytotoxic concentration (CC50) in [2], in data set [1] and in data set [4] was more than 400 µM throughout.

On to `C[C@@]1(O)[C@H](O)[C@@H](COP(=O)(O)O)O[C@H]1n1ccc(=O)[nH]c1=S`, for which the CC50 in data set [2], in [1] and in data set [4] was more than 400 µM in each case.

In the data set with HepG2, `CC(C)OC(=O)[C@H](C)NP(=O)(OC[C@H]1O[C@@H](n2ccc(=S)[nH]c2=O)[C@H](O)[C@@H]1O)Oc1ccccc1` (stereo partly drawn) [drawing 445] registered a CC50 of more than 400 µM.

Regarding `CC(C)OC(=O)[C@H](C)NP(=O)(OC[C@H]1O[C@@H](n2ccc(=S)[nH]c2=O)[C@](C)(O)[C@@H]1O)Oc1ccccc1` (stereo partly drawn) [drawing 447], the CC50 was more than 300 µM with BxPC3; more than 200 µM in the data set with H9c; more than 400 µM with Huh-7; more than 200 µM in the data set on A204; more than 400 µM with IEC-6.

As for `CC(C)OC(=O)[C@H](C)NP(=O)(OC[C@H]1O[C@@H](n2ccc(=O)[nH]c2=S)[C@H](O)[C@@H]1O)Oc1ccccc1` (stereo partly drawn) [drawing 451], the cytotoxic concentration (CC50) with Huh-7 was more than 400 µM.

As for `C[C@@]1(O)[C@H](O)[C@@H](CO)O[C@H]1n1ccc(=O)[nH]c1=S` [drawing 452], the CC50 in data set [2] is more than 400 µM; in [3] it was more than 100 µM; in data set [1], more than 100 µM; in data set [4], more than 200 µM.

On to `CC(C)OC(=O)[C@H](C)NP(=O)(OC[C@H]1O[C@@H](n2ccc(=O)[nH]c2=S)[C@](C)(O)[C@@H]1O)Oc1ccccc1` (stereo partly drawn) [drawing 453], for which the 50% cytotoxic concentration (CC50) in data set [2] is more than 400 µM; in [3], more than 300 µM; in [5], more than 200 µM; in data set [1], more than 400 µM; in [6], 98 µM; in [4] it was more than 300 µM. The molecule further came in with a half-maximal cytotoxic concentration (CC50) in data set [7] of more than 200 µM.

`CC(C)OC(=O)[C@H](C)NP(=O)(OC[C@H]1O[C@@H](n2ccc(=S)[nH]c2=O)[C@](C)(O)[C@@H]1O)Oc1ccccc1` (stereo partly drawn) [drawing 455]: the cytotoxic concentration (CC50) is more than 400 µM in data set [2]; more than 300 µM in [3]; more than 200 µM in data set [5]; more than 400 µM in [1]; more than 200 µM in [6]; 169 µM in data set [4]. Also, the CC50 in data set [7] is more than 400 µM.

The molecule `CC(C)OC(=O)[C@H](C)N[P@](=O)(OC[C@H]1O[C@@H](n2ccc(=O)[nH]c2=O)[C@](C)(F)[C@@H]1O)Oc1ccccc1` [drawing 460] displayed a half-maximal cytotoxic concentration (CC50) in data set [4] of more than 400 µM.

For `CC(C)OC(=O)[C@H](C)NP(=O)(OC[C@H]1O[C@@H](n2ccc(=S)[nH]c2=O)[C@H](O)[C@@H]1O)Oc1ccccc1` (stereo partly drawn) [drawing 462], the CC50 in data set [2] was more than 400 µM; in the data set on Huh-7, 369 µM; in data set [4], more than 400 µM.

For `CC(C)OC(=O)[C@H](C)NP(=O)(OC[C@H]1O[C@@H](n2ccc(=O)[nH]c2=S)[C@H](O)[C@@H]1O)Oc1ccccc1` (stereo partly drawn) [drawing 463], the CC50 in [2], in data set [1] and in data set [4] was more than 400 µM in each case.

On to `CC(C)OC(=O)[C@H](C)NP(=O)(OC[C@H]1O[C@@H](n2ccc(=O)[nH]c2=S)[C@](C)(O)[C@@H]1O)Oc1ccccc1` (stereo partly drawn) [drawing 470], for which the EC50 in data set [8] was 0.0371 µM; in the data set on GT1b-NS5B-S96T, 0.132 µM; in data set [10], 0.083 µM; with GT1b-NS5B-S282T, more than 10 µM; in data set [11] it was 0.0882 µM. The molecule also showed a CC50 in data set [9] of more than 10 µM.

In the case of `CC(C)OC(=O)[C@H](C)N[P@](=O)(OC[C@H]1O[C@@H](n2ccc(=O)[nH]c2=O)[C@](C)(F)[C@@H]1O)Oc1ccccc1` [drawing 472], the EC50 came out at 0.0493 µM in data set [8]; 0.0702 µM in the data set on GT1b-NS5B-S96T; 0.0199 µM in data set [10]; 0.287 µM in the data set on GT1b-NS5B-S282T; 0.0385 µM in [11]. Besides, the cytotoxic concentration (CC50) in data set [9] is more than 2 µM.

Take `C[C@@]1(O)[C@H](O)[C@@H](CO)O[C@H]1n1ccc(=O)[nH]c1=S` [drawing 473]: the EC50 in the data set on Dengue Type 2 (Huh-7, read-out: Dengue Type 2 Huh-7 Cells (EC50 uM)) was more than 100 µM; in the data set on Dengue Type 2 (Vero, read-out: Dengue Type 2 Vero Cells (EC50 uM)), 7.79 µM. This molecule also gave a half-maximal cytotoxic concentration (CC50) in [12] of more than 100 µM.
